Test results as given in patent publication US10800754B2, “Heterocyclic amide compound” (TAKEDA PHARMACEUTICAL COMPANY LIMITED, priority 2016, dated 2020).

molecular target: T1, human PRS protein (Homo sapiens, UniProt P07814); test: PRS inhibitory activity (ATP/[32P]pyrophosphate exchange enzyme reaction); assay type: biochemical; details: 300 nM test compound; recombinant human PRS (EPRS 998-1512); read-out: inhibitory rate (%) of PRS
T1 construct: to construct His-Avi-hEPRS (998-1512) expression plasmid; His tag (N); Avi tag (N); TEV cleavage site (ENLYFQ/GS, encoded by forward primer hEPRS-TEV-NheF) (N); made in house; host or cells: E. coli BL21(DE3)
T1 sequence (P07814 998-1512): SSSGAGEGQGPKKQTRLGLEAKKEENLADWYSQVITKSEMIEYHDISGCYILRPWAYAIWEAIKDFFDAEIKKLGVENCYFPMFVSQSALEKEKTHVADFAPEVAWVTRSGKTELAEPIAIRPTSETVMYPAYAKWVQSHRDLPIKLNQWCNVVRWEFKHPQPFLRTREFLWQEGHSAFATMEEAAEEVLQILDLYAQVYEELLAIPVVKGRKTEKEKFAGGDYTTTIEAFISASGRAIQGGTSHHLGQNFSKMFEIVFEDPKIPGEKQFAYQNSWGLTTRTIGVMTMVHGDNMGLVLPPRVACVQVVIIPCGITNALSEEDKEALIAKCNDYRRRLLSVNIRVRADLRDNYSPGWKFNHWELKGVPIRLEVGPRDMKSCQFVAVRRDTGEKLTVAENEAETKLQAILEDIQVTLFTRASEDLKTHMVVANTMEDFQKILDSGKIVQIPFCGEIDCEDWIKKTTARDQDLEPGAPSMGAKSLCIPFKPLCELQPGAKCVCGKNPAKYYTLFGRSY
Description: The PRS inhibitory activity of the compounds of the present invention was evaluated by the following method.
An expression plasmid of Catalytic Domain of human EPRS was obtained by PCR using human skeletal muscle cDNA Library (Takara Bio Inc.) as a template and 2 kinds of Primers 5′-[…]-3′ (hEPRS-TEV-NheF) (SEQ ID NO: 1) and 5′-[…]-3′ (hEPRS-St-Not-R) (SEQ ID NO: 2). PCR was performed using PrimeStar GXL DNA Polymerase (Takara Bio Inc.) and included (1) 98° C., 1 min, (2) cycles of 98° C., 10 sec, 65° C., 10 sec, 72° C., 1 min, and (3) reaction at 72° C., 1 min. This was cleaved with Nhe I and Not I (Takara Bio Inc.) and inserted using Ligation High (TOYOBO CO., LTD.) into the Nhe I/Not I site of pET21a (Novagen) with His-Avitag inserted thereinto. This was introduced into ECOS JM109 (NIPPON GENE CO., LTD.) to construct His-Avi-hEPRS (998-1512) expression plasmid.
Recombinant human PRS protein was prepared by transforming the His-Avi-hEPRS (998-1512) expression plasmid prepared above into ECOS Competent E. coli BL21(DE3) (NIPPON GENE CO., LTD.). Escherichia coli obtained by transformation was inoculated into 300 mL of LB medium (1% peptone, 0.5% yeast extract, 0.5% sodium chloride, 0.01% ampicillin) and cultured at 30° C. for 16 hr. The obtained culture medium was transferred into a jar culture tank charged with 6 L of the main fermentation medium (0.3% potassium dihydrogen phosphate, 0.6% disodium hydrogen phosphate, 0.1% ammonium chloride, 0.05% sodium chloride, 0.024% magnesium sulfate, 0.02% NEWPOL LB-625, 1.5% sorbitol, 1.5% casamino acid, 0.5% yeast extract, 0.01% ampicillin) and culturing was started at 37° C., quantity of airflow 5 L/min, stirring rotating speed 400 rpm. At the time point when the turbidity of the culture medium reached about 550 Klett units, the culture temperature was lowered to 16° C., isopropyl-β-D-thiogalactopyranoside (IPTG) was added to the final concentration 0.1 mM, and culturing was performed for another 16 hr to induce expression of human PRS. After completion of culturing, the culture medium was centrifuged at 5,000 rpm for 10 min. The obtained human PRS expressing Escherichia coli was suspended in a buffer containing 50 mM Tris-HCl (pH 8.0), 150 mM NaCl, 1 mM DTT, 5 U/ml Benzonase, 20 mM Imidazole and sonicated using Sonifier (BRANSON). The homogenate was centrifuged (33,000×G, 60 min, Beckman Coulter), the obtained supernatant was subjected to adsorption by passage through Ni-NTA Superflow (QIAGEN) column equilibrated in advance with 50 mM Tris-HCl (pH 8.0), 300 mM NaCl, 1 mM DTT, and elution was performed with a buffer containing 50 mM Tris-HCl (pH 8.0), 300 mM NaCl, 1 mM DTT, 250 mM Imidazole. Furthermore, gel filtration was performed using […] equilibrated in advance with a buffer containing 50 mM Tris-HCl (pH 8.0), 150 mM NaCl, 1 mM DTT, 10% glycerol to give purified human PRS protein. The protein concentration was measured using BCA Protein Assay Kit (PIERCE) and BSA as the standard.
A test compound was dissolved in 5 μL of an assay buffer (50 mM Tris-HCl (pH 7.5), 20 mM KCl, 1 mM DTT, 0.01% Tween 20) and incubated for 60 min with 5 μL of 40 nM human PRS protein dissolved in the assay buffer containing 40 mM MgCl2. An enzyme reaction of the human PRS protein was started by adding 10 μL of a substrate solution containing 300 μM ATP, 160 μM L-Proline, 400 μM pyrophosphate, [^32P]pyrophosphate (PerkinElmer, Waltham, Mass.) prepared to 1 MBq/mL. After incubation at room temperature for 30 min, the reaction was discontinued by adding 50 μL of discontinuation/washing solution (1M HCl, 200 mM sodium pyrophosphate) to the reaction mixture. The reaction solution was transferred to a filter plate (Merck Millipore, Billerica, Mass.) previously added with 200 μL of charcoal solution (0.5% HCl solution containing 10% charcoal (w/v)). […]

Row | SMILES | inhibition at 0.3 µM
1 | N#C[C@@]1(C2CC2)CCN(c2ccnc(NC(=O)Cc3cccc(-c4ccccc4)c3)c2)C1=O [Example 9, 2-(biphenyl-3-yl)-N-(4-((3S)-3-cyano-3-cyclopropyl-2-oxopyrrolidin-1-yl)pyridin-2-yl)acetamide] | 94%
2 | N#C[C@@]1(C2CC2)CCN(c2ccnc(NC(=O)Cc3cccc(-c4cnn(CC5CCCC5)c4)c3)c2)C1=O [Example 75, N-(4-((3S)-3-cyano-3-cyclopropyl-2-oxopyrrolidin-1-yl)pyridin-2-yl)-2-(3-(1-(cyclopentylmethyl)-1H-pyrazol-4-yl)phenyl)acetamide] | 97%
3 | N#C[C@@]1(C2CC2)CCN(c2ccnc(NC(=O)Cc3ccccc3F)c2)C1=O [Example 14, N-(4-((3S)-3-cyano-3-cyclopropyl-2-oxopyrrolidin-1-yl)pyridin-2-yl)-2-(2-fluorophenyl)acetamide] | 70%
4 | N#C[C@@]1(C2CC2)CCN(c2ccnc(NC(=O)Cc3ccsc3)c2)C1=O [Example 15, N-(4-((3S)-3-cyano-3-cyclopropyl-2-oxopyrrolidin-1-yl)pyridin-2-yl)-2-(3-thienyl)acetamide] | 84%
5 | N#C[C@@]1(C2CC2)CCN(c2ccnc(NC(=O)Cc3cccc(Cl)c3)c2)C1=O [Example 1, 2-(3-chlorophenyl)-N-(4-((3S)-3-cyano-3-cyclopropyl-2-oxopyrrolidin-1-yl)pyridin-2-yl)acetamide] | 84%
6 | COC(=O)Cn1cc(-c2cccc(CC(=O)Nc3cc(N4CC[C@@](C#N)(C5CC5)C4=O)ccn3)c2)cn1 [Example 73, methyl (4-(3-(2-((4-((3S)-3-cyano-3-cyclopropyl-2-oxopyrrolidin-1-yl)pyridin-2-yl)amino)-2-oxoethyl)phenyl)-1H-pyrazol-1-yl)acetate] | 99%
7 | N#C[C@@]1(C2CC2)CCN(c2ccnc(NC(=O)Cc3cccs3)c2)C1=O [Example 16, N-(4-((3S)-3-cyano-3-cyclopropyl-2-oxopyrrolidin-1-yl)pyridin-2-yl)-2-(2-thienyl)acetamide] | 88%
8 | Cc1cc(N2CC[C@@](C#N)(C3CC3)C2=O)nc(NC(=O)Cc2ccccc2)n1 [Example 131, N-(4-((3S)-3-cyano-3-cyclopropyl-2-oxopyrrolidin-1-yl)-6-methylpyrimidin-2-yl)-2-phenylacetamide] | 89%
9 | N#C[C@@]1(C2CC2)CCN(c2ccnc(NC(=O)Cc3cccc(Br)c3)c2)C1=O [Example 21, 2-(3-bromophenyl)-N-(4-((3S)-3-cyano-3-cyclopropyl-2-oxopyrrolidin-1-yl)pyridin-2-yl)acetamide] | 89%
10 | N#C[C@@]1(C2CC2)CCN(c2ccnc(NC(=O)Cc3cccc(-c4cnn(CCn5ccnc5)c4)c3)c2)C1=O [Example 81, N-(4-((3S)-3-cyano-3-cyclopropyl-2-oxopyrrolidin-1-yl)pyridin-2-yl)-2-(3-(1-(2-(1H-imidazol-1-yl)ethyl)-1H-pyrazol-4-yl)phenyl)acetamide] | 97%
11 | Cc1cc(N2CC(C)C(C#N)(C3CC3)C2=O)cc(NC(=O)Cc2ccccc2)n1 (centres unmarked) [Example 54, N-(4-(3-cyano-3-cyclopropyl-4-methyl-2-oxopyrrolidin-1-yl)-6-methylpyridin-2-yl)-2-phenylacetamide] | 77%
12 | COc1cc(N2CC[C@@](C#N)(C3CC3)C2=O)cc(NC(=O)Cc2cccc(-c3cnn(C)c3)c2)n1 [Example 62, N-(4-((3S)-3-cyano-3-cyclopropyl-2-oxopyrrolidin-1-yl)-6-methoxypyridin-2-yl)-2-(3-(1-methyl-1H-pyrazol-4-yl)phenyl)acetamide] | 92%
13 | CS(=O)(=O)CCn1cc(-c2cccc(CC(=O)Nc3cc(N4CC[C@@](C#N)(C5CC5)C4=O)ccn3)c2)cn1 [Example 89, N-(4-((3S)-3-cyano-3-cyclopropyl-2-oxopyrrolidin-1-yl)pyridin-2-yl)-2-(3-(1-(2-(methylsulfonyl)ethyl)-1H-pyrazol-4-yl)phenyl)acetamide] | 100%
14 | COCCOCCn1cc(-c2cccc(CC(=O)Nc3cc(N4CC[C@@](C#N)(C5CC5)C4=O)ccn3)c2)cn1 [Example 86, N-(4-((3S)-3-cyano-3-cyclopropyl-2-oxopyrrolidin-1-yl)pyridin-2-yl)-2-(3-(1-(2-(2-methoxyethoxy)ethyl)-1H-pyrazol-4-yl)phenyl)acetamide] | 96%
15 | Cc1cc(N2CCC(C)(C)C2=O)cc(NC(=O)Cc2cccc(-c3cnn(C)c3)c2)n1 [Example 49, N-(4-(3,3-dimethyl-2-oxopyrrolidin-1-yl)-6-methylpyridin-2-yl)-2-(3-(1-methyl-1H-pyrazol-4-yl)phenyl)acetamide] | 83%
16 | C=CC[C@]1(C#N)CCN(c2ccnc(NC(=O)Cc3cccc(-c4ccncc4)c3)c2)C1=O [Example 25, N-(4-((3R)-3-allyl-3-cyano-2-oxopyrrolidin-1-yl)pyridin-2-yl)-2-(3-(pyridin-4-yl)phenyl)acetamide] | 61%
17 | N#C[C@@]1(C2CC2)CCN(c2ccnc(NC(=O)Cc3cccc(-c4cnn(CC(F)(F)C(F)(F)F)c4)c3)c2)C1=O [Example 96, N-(4-((3S)-3-cyano-3-cyclopropyl-2-oxopyrrolidin-1-yl)pyridin-2-yl)-2-(3-(1-(2,2,3,3,3-pentafluoropropyl)-1H-pyrazol-4-yl)phenyl)acetamide] | 96%
18 | COc1cccc(CC(=O)Nc2cc(N3CC[C@@](C#N)(C4CC4)C3=O)ccn2)c1 [Example 10, N-(4-((3S)-3-cyano-3-cyclopropyl-2-oxopyrrolidin-1-yl)pyridin-2-yl)-2-(3-methoxyphenyl)acetamide] | 88%
19 | N#C[C@@]1(C2CC2)CCN(c2ccnc(NC(=O)Cc3ccc(Cl)s3)n2)C1=O [Example 130, 2-(5-chloro-2-thienyl)-N-(4-((3S)-3-cyano-3-cyclopropyl-2-oxopyrrolidin-1-yl)pyrimidin-2-yl)acetamide] | 84%
20 | N#C[C@@]1(C2CC2)CCN(c2ccnc(NC(=O)Cc3cccc(-c4cnn(CC(C(F)(F)F)C(F)(F)F)c4)c3)c2)C1=O [Example 92, N-(4-((3S)-3-cyano-3-cyclopropyl-2-oxopyrrolidin-1-yl)pyridin-2-yl)-2-(3-(1-(3,3,3-trifluoro-2-(trifluoromethyl)propyl)-1H-pyrazol-4-yl)phenyl)acetamide] | 93%
